# Patent US20040219098A1, “Methods for the treatment of tumors” (priority 2003, published 2004)
# Assays:
# [1] = tested on: JJ5 Breast Cancer cells; assay: Growth inhibition assay against JJ5 breast cancer cells; format: cell-based, human; settings: cultured 4 days
# Experimental: JJ5 breast cancer cells (prepared from BCBM JJ5) expressing approximately 10^6 epidermal growth factor receptors/cell were incubated with EGF-^111In-labeled transferrin composition, unlabeled hEGF or ^111In-oxine, centrifuged to remove free ligand, then assayed and seeded (10^6 cells/dish) into 35 mm culture dishes. Growth medium was added and the cells were cultured at 37° C./5% CO^2 for 4 days. The cells were then recovered by trypsinization and counted in a hemocytometer. Control dishes contained cells cultured in growth medium containing ^111In-DTPA or growth medium alone.
# [2] = tested on: JJ5 Breast Cancer cells; assay: Cytotoxicity (colony-forming) assay against JJ5 breast cancer cells; format: cell-based, human; settings: 14 days
# Experimental: JJ5 breast cancer cells were incubated with increasing amounts EGF-^111In-labeled transferrin composition or ^111In-oxine, centrifuged to remove free ligand, assayed and then seeded into 50 mm culture dishes. The number of cells seeded was varied from 3×10^4 to 3×10^6 cells to obtain approximately 400 viable colonies/dish taking into account the plating efficiency and the expected level of cytotoxicity. Control dishes contained JJ5 breast cancer cells which were incubated with normal saline. Growth medium was added and the cells were cultured at 37° C./5% CO^2 for 14 days. The growth medium was removed and the colonies were stained with methylene blue (1% in a 1:1 mixture of ethanol and water) then washed twice. The number of colonies per dish was counted using a manual colony counter (Manostat Corp). The plating efficiency was calculated by dividing the number of colonies observed by the number of cells seeded in each dish. The surviving fraction at increasing amounts of EGF-^111In-labeled transferrin composition or ^111In-oxine was calculated by dividing the plating efficiency for dishes containing treated cells with that observed for control dishes with normal saline.
# Using a colony-forming assay, the radiotoxicity of internalization for JJ5 breast cancer cells was evaluated.
# [3] = tested on: JJ5 Breast Cancer cells; assay: Binding of EGF-111In-labeled transferrin composition to breast cancer cells (radioligand binding, kinetics, retention, internalization); design: species or system human; settings: for binding / internalization by cancer cells (in words): JJ5 breast cancer cells
# Description: Breast cancer cells express up to 100-fold higher levels of EGFR than do normal epithelial tissues. EGFR expression in breast cancer bone metastasis biopsies ranged from 1-1300 fmol/mg membrane protein (approximately 400-1,000,000 receptors/cell) and was associated with high relapse rates and poor long term survival. Normal epithelial cells express <10^4 receptors/cell. For the normal breast cell line HBL-100, 8000 EGFR/cell has been reported. The expression of EGFR in breast cancer cell lines has a reported range of 800 EGFR/cell for MCF-7 cells to 10^6 EGFR/cell for MDA-MB-468 cells. […] Utilizing the Auger electron emitter In was used in the initial experiments to illustrate the utility of the invention using EGF-^111In-labeled transferrin compositions. The EGF-^111In-labeled transferrin (0.25-80 ng) was incubated with 1.5×10^6 cells/dish JJ5 Breast Cancer (prepared from BCBM JJ5) cells in 1 mL of 0.1% human serum albumin in 35 mm multiwell culture dishes at 37° C. for 30 minutes. The cells were transferred to a centrifuge tube and centrifuged. The cell pellet was separated from the supernatant and counted in a g-scintillation counter to determine bound (B) and free (F) radioactivity. Non-specific binding was determined by conducting the assay in 100 nM hEGF. The kinetics of binding was determined by incubating 1 ng of EGF-^111In-labeled transferrin composition with 3×10^6 JJ5 Breast Cancer cells at 37° C. and determining the proportion of radioactivity bound to the cells at various times up to 24 hours. Internalized fraction was measured by determining the proportion of radioactivity which could not be displaced from the cell surface by 100 nM hEGF. Cell-associated binding (surface-binding and intracellular accumulation) was expressed as a percentage of medium radioactivity bound per mg of cell study protein.
# EGF-^111In-labeled transferrin composition was rapidly bound by the breast cancer cells and retained for at least 24 hours. Over a 24 hour period at 37° C., <8% was lost from the cells in vitro.
Molecule,growth inhibition of the JJ5 cells compared to the medium control ([1]; 3.5 pCi/cell) [%],cell killing ([2]; <6 pCi/cell),growth inhibition of the JJ5 cells compared to the medium control ([1]; 3.4 pCi/cell) [%],reduction in cell survival ([2]; 8 pCi/cell) [%],"time retained by the breast cancer cells ([3]; 37° C., in vitro)",binding / internalization by cancer cells (in words) [3],binding / internalization by cancer cells (in words) ([3]; listed as EGF-^111In-labeled transferrin compostions),"affinity constant for binding to JJ5 cells ([3]; association (affinity) constant, 37° C., 30 minutes, non-specific binding in 100 nM hEGF) [L/mol]","111In radioactivity lost from the cells ([3]; over a 24 hour period at 37° C., in vitro) [%]"
"[In+3].[O-]c1cccc2cccnc12.[O-]c1cccc2cccnc12.[O-]c1cccc2cccnc12 [^111In oxine, reference compound]",91,greater than 99%,–,–,–,–,–,–,–
EGF-^111In-labeled transferrin composition: human epidermal growth factor (EGF) operatively linked via linker-biotin/streptavidin to 111In-radiolabeled human transferrin,–,–,83,99,at least 24 hours,rapidly bound,rapidly internalized,8e+08,< 8
